From patent US20030027820A1, “Method for treating fibrotic diseases or other indications V” (Alteon, Inc., priority 2001, published 2003)
Structures can show the parent of a compound that is named as a salt.

Assays:
Type IV collagen = assay: In situ hybridization studies, Type IV collagen; format: in vivo
Text: (§1) Cardiovascular risk correlates more closely with the systolic and the pulse pressure than with the diastolic pressure. In diabetic patients, the cardiovascular risk profile of diabetic patients is strongly correlated to duration of diabetes, glycemic control and blood pressure. Structural matrix proteins contribute to the function of vessels and the heart, and changes in the physical behavior of cardiovascular walls are believed to be important determinants of circulatory function. In elderly individuals, the loss of compliance in the aorta leads to isolated systolic hypertension, which in turn expands the arterial wall and thereby diminishes the dynamic range of elasticity. Loss of compliance also results in the development of left ventricular hypertrophy.

[1] = In vivo studies of vascular stiffening in rodents, canines and primates
Text: as §1

TGFbeta = assay: In situ hybridization studies, TGFbeta; format: in vivo
Text: as §1

[2] = Dog model for diabetes, ventricular elasticity; format: in vivo
Text: as §1

[3] = test system: collagen in cardiovascular tissues; assay: Mass of collagen in cardiovascular tissues after treatment; format: in vivo
Text: as §1

Phase IIa clinical trial = format: in vivo, human
Text: When the heart pumps blood into the vascular system, the ability of the arteries to expand helps to push blood through the body. When arteries become stiff, as they do in the natural process of aging, the ability of the arteries to expand is diminished and also has consequences for the heart. The heart has to work harder to pump the blood into the stiff arteries, and eventually hypertrophies (enlarges in size) to accomplish this. A hypertrophied heart is an inefficient pump, and is one of the disorders that leads to congestive heart failure. […] The potential clinical benefit of this is to lessen the effort that the heart must expend to push blood throughout the body. The effect is also believed to contribute to preventing hypertrophy and subsequent inefficiency of the heart, which inefficiency would contribute to congestive heart failure.
Atherosclerosis is a disease that involves deposition of blood lipids in plaque in the arteries throughout the body. In coronary arteries, accumulation of plaque progressively leads to reduced coronary flow, with occlusion of the arteries causing focal death of cardiac tissue (myocardial infarction, heart attack). If the amount of tissue that dies is large enough, death ensures. […] Reducing local deposits of plaque should eventually lessen the risk of myocardial infarction and death due to heart attacks.
Pulse pressure is the difference between systolic and diastolic blood pressure. In a young human, systolic pressure is typically 120 mm Hg and diastolic pressure is 80 mm Hg, resulting in a pulse pressure of 40 mm Hg. With age, in many individuals pulse pressure increases, largely due to the increase in systolic pressure that results from stiff vessel disease. In individuals with pulse pressure greater than 60 mm Hg there is an increased risk of death from cardiovascular morbidities.

Cc1sc[n+](CC(=O)c2ccccc2)c1C [3-[2-phenyl-2-oxoethyl]-4,5-dimethyl-thiazolium salt]
expression of Type IV collagen (Type IV collagen): reduces the expression of both Type IV collagen and TGFbeta
vascular stiffening [1]: substantially ameliorating vascular stiffening
expression of TGFbeta (TGFbeta): reduces the expression of both Type IV collagen and TGFbeta
end diastolic pressure (indicator of ventricular elasticity) [2]: returned to a value at about the mid-point between the disease impaired value and the value for control dogs
end diastolic volume (indicator of ventricular elasticity) [2]: returned to a value at about the mid-point between the disease impaired value and the value for control dogs
mass of collagen in cardiovascular tissues [3]: reduction in the mass of collagen in cardiovascular tissues
stiffness of arteries, as measured by the ratio of stroke volume (ml) to pulse pressure (mm Hg) (Phase IIa clinical trial; Phase IIa clinical trial): showed an ability to reverse the stiffness of arteries
amount of circulating triglycerides (lipids) (Phase IIa clinical trial; Phase IIa trial): increased the amount of circulating triglycerides
systolic blood pressure (Phase IIa clinical trial; Phase IIa trial, believed to be the primary cause of the pulse pressure decrease): lowering the systolic blood pressure
pulse pressure (Phase IIa clinical trial; Phase IIa trial, elderly patients with pulse pressures greater than 60 mm Hg): reduced pulse pressure in elderly patients with pulse pressures greater than 60 mm Hg in a statistically significant manner
